Laboratory results published in PubChem BioAssay AID504556 (Southern Research Specialized Biocontainment Screening …, 2011).
Activity calls are given as the source filed them. How the calls were made is not given here. Residues, ends and D or L forms follow the SMILES beside them. *: point of attachment. Cbz = O=C(OCc1ccccc1)*

Experiments:
[1] = tested on: Mycobacterium tuberculosis H37Rv growth in 7H9 medium; experiment: M. tuberculosis H37Rv growth inhibitors – 7H9 medium, purified and synthesized compounds, set 2, dose response (AID 504556); conditions: for IC90: measured here: M. tuberculosis growth IC90
[2] = as above; conditions: Mycobacterium tuberculosis H37Rv growth in 7H9 medium; at 25 µM (top of the series)

Row | Compound | IC50 [1] [nM] | IC90 [1] [nM] | growth inhibition [2]
1 | CCOC1OC(=O)C(Cl)=C1Nc1ccccc1C (stereo not given) | 2020 | 9040 | 
2 | Cc1cccc(-c2oc3ccc(-c4ccc5c(c4)OCO5)cc3c2C#Cc2cncn2C)c1 | 2360 | 3220 | 
3 | O=C1C(Br)=Cc2cccc3cccc1c23 | 20 | 1080 | 
4 | COC(=O)C1CC(=O)N(c2ccc(OCc3ccccc3Cl)cc2)C1 (stereo not given) | 220 | 3840 | 
5 | Oc1ccccc1/C=N/Nc1ccnc(SCc2ccccc2)n1 |  |  | 19.3% (inactive)
6 | Cc1ccc2c(c1)c(C1=c3ccccc3=NC1=O)c(O)n2C | 250 | 1720 | 
7 | CCc1ccc(/C=C2/C(=O)N(C)C(=S)N2CC(=O)OC)s1 | 190 | 3110 | 
8 | COc1cc(NC(=O)C/C(C)=N/NC(=O)c2ccccn2)c(OC)cc1Cl | 990 | 3040 | 
9 | COC(=O)CCc1nc2c(C#N)c(-c3ccc(Cl)cc3)ccn2n1 | 1110 | 2460 | 
10 | O=C(/C=C\c1cccs1)N1CCN(Cc2ccc3c(c2)OCO3)CC1 | 330 | 1970 | 
11 | CCOC(=O)CNC(=O)[C@H](Cc1ccccc1)NC(=O)OCc1ccccc1 (Cbz-Phe-Gly-OEt) | 610 | 1220 | 
12 | Cc1ccc(NC(=O)C2C3/C=C\CCCCC32)cc1C (stereo not given) | 1490 | 4010 | 
13 | COC(=O)c1cc(=O)n(-c2ccc(F)cc2)c(=Nc2ccc(F)cc2)s1 | 150 | 1460 | 
14 | Cc1cccc(/C=C/C(=O)c2ccc([N+](=O)[O-])o2)c1 | < 10 | < 10 | 
15 | Nc1c(C(=O)NC2CCCCC2)nsc1C(=O)OCC(=O)NC1CCCCC1 | 380 | 2090 | 
16 | O=C(CSc1nc2ccccc2c(=O)[nH]1)NCc1ccc(Cl)cc1 | 160 | 720 | 
17 | Cc1ccc(C(=O)N/N=C(/CC(=O)c2cccs2)C(F)(F)F)cc1 | 540 | 1050 | 
18 | COC(=O)c1ccc(CNc2c(N3CCCC3)c(=O)c2=O)cc1 |  |  | 0.86% (inactive)
19 | O=C(NCC(c1cccs1)N1CCOCC1)c1cc([N+](=O)[O-])cc([N+](=O)[O-])c1 (stereo not given) | 90 | 190 | 
20 | CCOC(=O)C(C)Sc1ncnc2c1nnn2-c1ccc(F)cc1 (stereo not given) | 70 | 3420 | 

Row | Compound | IC50 [1] [nM] | IC90 [1] [nM] | growth inhibition [2]
21 | CC(C)NC(=O)c1sc(=S)n2c1[nH]c(=O)c1ccc(C(=O)NCCc3ccc(Cl)cc3)cc12 | 80 | 230 | 
22 | CCOC(=O)COn1c2c(c3c4no[n+]([O-])c4ccc31)CCCC2 | 1730 | 3680 | 
23 | S=c1nc[nH]c2nc[nH]c12 | 950 | 1570 | 
24 | Cc1nn2c(NCc3ccccn3)cc(C(C)C)nc2c1-c1ccccc1 | 510 | 820 | 
25 | CC(=NCc1ccc2c(c1)OCO2)C1=C(O)c2ccccc2C1=O | 400 | 6040 | 
26 | CCOC(=O)c1ccc(NC(=O)Cn2ncc(Cl)c(Cl)c2=O)cc1 | 70 | 480 | 
27 | CNc1nc(SCc2ccccc2Cl)nc2c1CCCC2 | 680 | 1910 | 
28 | Cc1ccc2ccc3ccc(C)nc3c2n1 | 50 | 230 | 
29 | CC[N+](C)(CC)CCCCOc1ccc2c(c1)C(=O)c1cc(OCCCC[N+](C)(CC)CC)ccc1-2 | 770 | 1220 | 
30 | CCOC(=O)COc1ccc(/C=C2\NC(=S)N(CC)C2=O)cc1 | 820 | 6190 | 
31 | O=C(CSc1nc2ccccc2c(=O)[nH]1)NC1CCCCC1 | < 10 | < 10 | 
32 | Cc1cc(Br)ccc1NC(=O)c1cnc(N2CCN(c3ccccn3)CC2)c2ccccc12 | 180 | 1470 | 
33 | COC(=O)C(Nc1nc(SCC(=O)NC2CCCCC2)nc2ccccc12)c1ccccc1 (stereo not given) |  |  | 2.12% (inactive)
34 | CC1CCN(C(=O)C2CCN(c3nnc(-n4cccc4)s3)CC2)CC1 | 890 | 2230 | 
35 | O=C(/C=C/c1ccccc1)N1CCN(CCN2C(=O)c3cccc4cccc(c34)C2=O)CC1 | 1290 | 3470 | 
36 | c1ccc(/N=C2\N=C(Nc3ccccn3)c3ccccc32)nc1 | < 10 | < 10 | 
37 | CCC(C)Nc1ccc(NC(C)CC)cc1 (stereo not given) | 320 | 590 | 
38 | COC(=O)C(C)Oc1ccc(-c2nccc(-c3ccccn3)n2)cc1 (stereo not given) | 1170 | 2590 | 
39 | Cc1nc(SCC(=O)NC2CCCCC2)[nH]c(=O)c1C | 40 | 1030 | 
